{
  "source": "patent US20240132484A1",
  "about": "“BROAD SPECTRUM ANTIVIRAL COMPOUNDS TARGETING THE SKI COMPLEX” (priority 2020, published 2024)",
  "key": {"SARS2": {"tested_on": "SARS2", "type": "cell-based, SARS-CoV-2", "settings": "for Percentage Infection Relative to Appropriate DMSO Control: avg background subtraction"}},
  "note": "Where “and” joins values, the source holds several entries; their conditions need not be identical. Equal entries are not always repeated. Where two headings read alike, the source gives them in different places.",
  "data": [
    {"smiles": "Cc1ccc(CN(CCN(C)C)Cc2cc(C#CCO)cs2)s1", "note": "[SILCS1]", "values": [
      {"measurement": "Percentage Infection Relative to Appropriate DMSO Control", "setting": "SARS2; 1 uM, Exp 1 (SMW454), single wells", "result": "99.35% and 98.10% and 99.72%"},
      {"measurement": "Percentage Infection Relative to Appropriate DMSO Control", "setting": "SARS2; 5 uM, Exp 1 (SMW454), single wells", "result": "112.30% and 117.54% and 117.35%"},
      {"measurement": "Percentage Infection Relative to Appropriate DMSO Control", "setting": "SARS2; 10 uM, Exp 1 (SMW454), single wells", "result": "107.68% and 118.84% and 98.07%"},
      {"measurement": "Percentage Infection Relative to Appropriate DMSO Control", "setting": "SARS2; 25 uM, Exp 1 (SMW454), single wells", "result": "103.38% and 104.01% and 105.61%"},
      {"measurement": "Percentage Infection Relative to Appropriate DMSO Control", "setting": "SARS2; 50 uM, Exp 1 (SMW454), single wells", "result": "103.48% and 93.04% and 95.93%"},
      {"measurement": "Infection Data, Average, Mean", "setting": "SARS2; Average of Exp 1-3, n 9, 1 uM", "result": 122.42, "unit": "%"},
      {"measurement": "Infection Data, Average, Mean", "setting": "SARS2; Average of Exp 1-3, n 9, 5 uM", "result": 119.79, "unit": "%"},
      {"measurement": "Infection Data, Average, Mean", "setting": "SARS2; Average of Exp 1-3, n 9, 10 uM", "result": 100.52, "unit": "%"},
      {"measurement": "Infection Data, Average, Mean", "setting": "SARS2; Average of Exp 1-3, n 9, 25 uM", "result": 61.83, "unit": "%"},
      {"measurement": "Infection Data, Average, Mean", "setting": "SARS2; Average of Exp 1-3, n 9, 50 uM", "result": 43.32, "unit": "%"},
      {"measurement": "Percentage Infection Relative to Appropriate DMSO Control", "setting": "SARS2; Exp 2 (SMW466), 1 uM", "result": "148.68% and 144.39% and 143.85%"},
      {"measurement": "Percentage Infection Relative to Appropriate DMSO Control", "setting": "SARS2; Exp 2 (SMW466), 5 uM", "result": "114.43% and 126.13% and 128.85%"},
      {"measurement": "Percentage Infection Relative to Appropriate DMSO Control", "setting": "SARS2; Exp 2 (SMW466), 10 uM", "result": "102.74% and 102.52% and 110.68%"},
      {"measurement": "Percentage Infection Relative to Appropriate DMSO Control", "setting": "SARS2; Exp 2 (SMW466), 25 uM", "result": "28.51% and 36.47% and 30.25%"},
      {"measurement": "Percentage Infection Relative to Appropriate DMSO Control", "setting": "SARS2; Exp 3 (SMW480), 1 uM", "result": "128.15% and 110.09% and 129.44%"},
      {"measurement": "Percentage Infection Relative to Appropriate DMSO Control", "setting": "SARS2; Exp 3 (SMW480), 5 uM", "result": "127.64% and 114.03% and 119.89%"},
      {"measurement": "Percentage Infection Relative to Appropriate DMSO Control", "setting": "SARS2; Exp 3 (SMW480), 10 uM", "result": "73.36% and 110.69% and 80.10%"},
      {"measurement": "Percentage Infection Relative to Appropriate DMSO Control", "setting": "SARS2; Exp 3 (SMW480), 25 uM", "result": "55.94% and 38.83% and 53.44%"},
      {"measurement": "Percentage Infection Relative to Appropriate DMSO Control", "setting": "SARS2; Exp 3 (SMW480), 50 uM", "result": "27.26% and 20.30% and 23.61%"},
      {"measurement": "Percentage Inhibition Average 1 μM", "setting": "SARS2; SARS2, 1 μM", "result": "−22.42", "unit": "%"},
      {"measurement": "Screening data (Relative infection to DMSO controls) Average 1 μM", "setting": "SARS2; SARS2, 1 μM, 100=DMSO control", "result": 122.42},
      {"measurement": "Percentage Inhibition Average 5 μM", "setting": "SARS2; SARS2, 5 μM", "result": "−19.79", "unit": "%"},
      {"measurement": "Screening data (Relative infection to DMSO controls) Average 5 μM", "setting": "SARS2; SARS2, 5 μM, 100=DMSO control", "result": 119.79},
      {"measurement": "Percentage Inhibition Average 10 μM", "setting": "SARS2; SARS2, 10 μM", "result": "−0.52", "unit": "%"},
      {"measurement": "Screening data (Relative infection to DMSO controls) Average 10 μM", "setting": "SARS2; SARS2, 10 μM, 100=DMSO control", "result": 100.52},
      {"measurement": "Percentage Inhibition Average 25 μM", "setting": "SARS2; SARS2, 25 μM", "result": 38.17, "unit": "%"},
      {"measurement": "Screening data (Relative infection to DMSO controls) Average 25 μM", "setting": "SARS2; SARS2, 25 μM, 100=DMSO control", "result": 61.83},
      {"measurement": "Percentage Inhibition Average 50 μM", "setting": "SARS2; SARS2, 50 μM", "result": 56.68, "unit": "%"},
      {"measurement": "Screening data (Relative infection to DMSO controls) Average 50 μM", "setting": "SARS2; SARS2, 50 μM, 100=DMSO control", "result": 43.32},
      {"measurement": "Average (relative infection to DMSO over the 5 tested concentrations)", "setting": "SARS2; SARS2, average over 1 to 50 uM, 100=DMSO control", "result": 89.58},
      {"measurement": "Relative cell count to DMSO controls, Average 1 μM", "setting": "cells (nuclei count); 1 μM, toxicity data, 100=DMSO control", "result": 98.82},
      {"measurement": "Relative cell count to DMSO controls, Average 5 μM", "setting": "cells (nuclei count); 5 μM, toxicity data, 100=DMSO control", "result": 99.54},
      {"measurement": "Relative cell count to DMSO controls, Average 10 μM", "setting": "cells (nuclei count); 10 μM, toxicity data, 100=DMSO control", "result": 108.52},
      {"measurement": "Relative cell count to DMSO controls, Average 25 μM", "setting": "cells (nuclei count); 25 μM, toxicity data, 100=DMSO control", "result": 116.28},
      {"measurement": "Relative cell count to DMSO controls, Average 50 μM", "setting": "cells (nuclei count); 50 μM, toxicity data, 100=DMSO control", "result": 84.14},
      {"measurement": "Toxicity Data, Average, Mean", "setting": "cells (nuclei count); Average of Exp 1-3, n 9, 1 uM", "result": 98.82, "unit": "%"},
      {"measurement": "Toxicity Data, Average, Mean", "setting": "cells (nuclei count); Average of Exp 1-3, n 9, 5 uM", "result": 99.54, "unit": "%"},
      {"measurement": "Toxicity Data, Average, Mean", "setting": "cells (nuclei count); Average of Exp 1-3, n 9, 10 uM", "result": 108.52, "unit": "%"},
      {"measurement": "Toxicity Data, Average, Mean", "setting": "cells (nuclei count); Average of Exp 1-3, n 9, 25 uM", "result": 116.28, "unit": "%"},
      {"measurement": "Toxicity Data, Average, Mean", "setting": "cells (nuclei count); Average of Exp 1-3, n 9, 50 uM", "result": 84.14, "unit": "%"},
      {"measurement": "Toxicity Data, nuclei count relative to DMSO controls", "setting": "cells (nuclei count); Exp 1 (SMW454), 1 uM", "result": "105.2% and 108.8% and 106.3%"},
      {"measurement": "Toxicity Data, nuclei count relative to DMSO controls", "setting": "cells (nuclei count); Exp 1 (SMW454), 5 uM", "result": "102.9% and 104.5% and 102.2%"},
      {"measurement": "Toxicity Data, nuclei count relative to DMSO controls", "setting": "cells (nuclei count); Exp 1 (SMW454), 10 uM", "result": "107.4% and 106.9% and 105.6%"},
      {"measurement": "Toxicity Data, nuclei count relative to DMSO controls", "setting": "cells (nuclei count); Exp 1 (SMW454), 25 uM", "result": "94.7% and 94.9% and 95.9%"},
      {"measurement": "Toxicity Data, nuclei count relative to DMSO controls", "setting": "cells (nuclei count); Exp 1 (SMW454), 50 uM", "result": "83.8% and 87.1% and 84.9%"},
      {"measurement": "Toxicity Data, nuclei count relative to DMSO controls", "setting": "cells (nuclei count); Exp 2 (SMW466), 1 uM", "result": "93.5% and 94.5% and 96.6%"},
      {"measurement": "Toxicity Data, nuclei count relative to DMSO controls", "setting": "cells (nuclei count); Exp 2 (SMW466), 5 uM", "result": "107.1% and 94.1% and 106.7%"},
      {"measurement": "Toxicity Data, nuclei count relative to DMSO controls", "setting": "cells (nuclei count); Exp 2 (SMW466), 10 uM", "result": "107.3% and 102.2% and 104.0%"},
      {"measurement": "Toxicity Data, nuclei count relative to DMSO controls", "setting": "cells (nuclei count); Exp 2 (SMW466), 25 uM", "result": "130.6% and 124.7% and 133.0%"},
      {"measurement": "Toxicity Data, nuclei count relative to DMSO controls", "setting": "cells (nuclei count); Exp 2 (SMW466), 50 uM", "result": "88.5% and 77.1% and 78.5%"},
      {"measurement": "Toxicity Data, nuclei count relative to DMSO controls", "setting": "cells (nuclei count); Exp 3 (SMW480), 1 uM", "result": "89.7% and 102.3% and 92.4%"},
      {"measurement": "Toxicity Data, nuclei count relative to DMSO controls", "setting": "cells (nuclei count); Exp 3 (SMW480), 5 uM", "result": "88.1% and 95.7% and 94.5%"},
      {"measurement": "Toxicity Data, nuclei count relative to DMSO controls", "setting": "cells (nuclei count); Exp 3 (SMW480), 10 uM", "result": "124.6% and 98.4% and 120.2%"},
      {"measurement": "Toxicity Data, nuclei count relative to DMSO controls", "setting": "cells (nuclei count); Exp 3 (SMW480), 25 uM", "result": "120.8% and 130.3% and 121.5%"},
      {"measurement": "Toxicity Data, nuclei count relative to DMSO controls", "setting": "cells (nuclei count); Exp 3 (SMW480), 50 uM", "result": "72.1% and 98.8% and 86.4%"},
      {"measurement": "Relative cell count to DMSO controls, Average (for correlation analysis)", "setting": "cells (nuclei count); average value over the 5 tested concentrations (1 to 50 uM)", "result": 101.46}
    ]}
  ]
}
